Where two headings read alike, the source gives them in different places. Peptide text beside a SMILES is read from it.
Assays:
[1] = tested on: HPVS PsV; settings: read-out: IC50, inhibition of uptake of HPVS PsV; PsV 1:6000 dilution, 293TT cells
Protocol: Pseudovirus (PsV) of HPVS was prepared using method described by Buck et al, (Journal of Virology, January 2004; 751-757) and used as a model HPV in this study. The PsV stocks were prepared by co-transfecting human 293TT cells with HPVS viral plasmid p5Shell containing codon-modified papillomavirus capsid genes for L1 and L2 proteins, and pcLucF reporter plasmid containing the luciferase gene for detecting viral infection. The cell lysates containing the capsidized virus was used as the PsV stock. Optimal PsV dilution factor was determined based on the luciferase activity in 293TT cells infected with serially diluted HPVS PsV.
Data were collected on a Molecular Devices Flexstation 3 Microplate Reader using Softmax Pro v5.4.4. Data analysis was performed on Prism software using four parameter logistic model. […] Furin Inhibitor I was used as a positive control for HPVS PsV inhibition since it blocks the viral entry into host cells.
Two runs were performed for each dilution level.

[2] = tested on: external anogenital warts; assay type: in vivo, human
Protocol: A randomized, double-blind, placebo-controlled study to assess the pharmacodynamics, safety/tolerability and efficacy of omiganan in patients with external anogenital warts was conducted. 24 patients aged 18 years or older with clinically diagnosed external anogenital warts were enrolled. […] The gel was applied topically once daily for 12 weeks. The treatment period was from day 0 till day 84. During the treatment period subjects visited the clinical unit on days 0, 14, 28, 56 and 84. A fixed dose of omiganan or placebo was applied once daily. Two follow up visits were scheduled on days 126 and 168. During study execution, vital signs were measured on days 0, 14, 28, 56 and 84. Pharmacodynamic assessments were performed on day 0 (pre-dose), 14, 28, 56 and 84, respectively. Punch biopsies were performed at the screening and on days 56 and 168. Subjects were dosed 84 consecutive days with approximately 24 hours between each treatment. Omiganan or placebo (vehicle) was administered to the subjects. […] Subjects were instructed to apply a fingertip unit of gel (approximately […]). Omiganan is prepared as a lyophilized powder of the pentahydrochloride salt. The molecular formula is C90H127N27O12. HCl*H2O. […] Any other therapy for external anogenital warts (topical treatment, laser therapy, cryotherapy, photodynamic therapy and surgical excision) was not allowed from 28 days prior to the first study drug administration, during the study and until the 3 month follow up assessment was completed. Wart count and wart clearance. The warts were counted at every study visit. FIGS. 18A and 18B show the change in value of the count of the target warts over time per treatment. […] Wart clearance was derived from the count of all warts present at baseline. In FIG. 19, the proportion of baseline lesions cleared is shown. […] Wart size. Wart size was measured during every visit. The change in mean of the long and short diameter, height and volume measured is presented in FIG. 21 along with the p-values.

[3] = tested on: IL-1β, IL-8; assay: Biomarkers (qPCR) in wart biopsies; assay type: in vivo, human; settings: during the study period
Protocol: The treatment period was from day 0 till day 84. During the treatment period subjects visited the clinical unit on days 0, 14, 28, 56 and 84. A fixed dose of omiganan or placebo was applied once daily. Two follow up visits were scheduled on days 126 and 168. During study execution, vital signs were measured on days 0, 14, 28, 56 and 84. Pharmacodynamic assessments were performed on day 0 (pre-dose), 14, 28, 56 and 84, respectively. Punch biopsies were performed at the screening and on days 56 and 168. Subjects were dosed 84 consecutive days with approximately 24 hours between each treatment.
Biomarkers in biopsy. Biopsies were taken from biopsy wart 1 at screening, biopsy wart 2 at EOT and target wart at EOS. Biopsies were only taken when the warts were still visible.

[4] = tested on: TLR7; assay: Ongoing inflammation in PBMC cultures: imiquimod 3 hrs followed by omiganan 21 hrs; assay type: cell-based, human
Protocol: Primary cell cultures were prepared in RPMI including 5% autologous plasma. Isolated PBMC cells were cultured in 96-well plates at a density of 0.5×10^6cells/well at 37° C., under humidified 5% CO2.
IL-1β, TNFα, IL-6 and IL-8 were measured simultaneously with a fixed electrochemoluminescence platform based on the sandwich ELISA principle of capture and detection antibodies, produced by MESO SCALE DISCOVERY (MSD, MESO SCALE QUICKPLEX SQ120). The applied assay was the V-PLEX PLUS pro-inflammatory cytokine panel II, including IL-1β, TNFα, IL-6 and IL-8. This assay includes manufacturer-provided control samples with indicated nominal values for comparison. These lyophilized controls, i.e. freeze-dried controls for IL-1β, TNFα, IL-6, IL-8, were prepared freshly at the time of use. QC samples were prepared from the calibrator at 3 different concentrations along the standard curve as multiple aliquots from a single batch and maintained at −20° C. Low, medium and high concentration controls were included in every multiplex assay run to control intra- and inter-assay variation. V-PLEX panels are specific for the detection of human chemokines and cytokines, and combinations have been validated by the manufacturer, to ensure no cross-reactivity.
Briefly, PBMC primary cultures were prepared from 4 donors. […] The readouts for the following cytokine and chemokine release were measured: IL-1β, IL-2, IL-4, IL-6, IL-8 HA, IL-8, IL-12p70, IL-13, IFN-γ, and TNF-α were measured. The cultures were prepared in duplicate.

[5] = tested on: TLR9; assay: TLR9-mediated interferon responses in PBMC cultures (IFN-α ELISA); assay type: cell-based, human
Protocol: CpG motifs are present in a variety of DNA viruses and CpG signaling is relevant to host defense against viral infections. Briefly, PBMC primary cultures were prepared from 2 donors. […] E. coli ssDNA (5 μg/mL) or PBS (unstimulated). The readouts for IFN-α in cell supernatant were measured by ELISA.

[6] = tested on: TC-1 tumor; assay: Tumor outgrowth and flow cytometry after intratumoral injections in TC-1 mice; assay type: in vivo
Protocol: Tumor growth was measured at days 9, 10, 12, 14, and 16.
Tumor growth was measured at day 9 (one day before injection), 10, 12, 14 and day 16 (at sacrifice).

[7] = omiganan 25, 12.5, 6.25 μg/mL added after 3 hour imiquimod
[8] = omiganan added after 3 hour imiquimod, effect less obvious
[9] = 6.25 or 25 μg/mL omiganan 30min pre-incubation, 24hr

CC[C@H](C)[C@H](N)C(=O)N[C@@H](CC(C)C)C(=O)N[C@@H](CCCNC(=N)N)C(=O)N[C@@H](Cc1c[nH]c2ccccc12)C(=O)N1CCC[C@H]1C(=O)N[C@@H](Cc1c[nH]c2ccccc12)C(=O)N[C@@H](Cc1c[nH]c2ccccc12)C(=O)N1CCC[C@H]1C(=O)N[C@@H](Cc1c[nH]c2ccccc12)C(=O)N[C@@H](CCCNC(=N)N)C(=O)N[C@@H](CCCNC(=N)N)C(=O)N[C@@H](CCCCN)C(N)=O [omiganan, I L R W P W W P W R R K] (H-ILRWPWWPWRRK-NH2)
IC50 [1]: 23.5 to 29.1 µM | proportion of all lesions cleared (printed: mean of baseline warts cleared) ([2]; EOS, p-value=0.2891 vs vehicle): 23.82% | mean of baseline warts cleared ([2]; EOS, p-value=0.3918 vs vehicle): 29.3% | mean of all warts cleared ([2]; EOT, p-value=0.1879 vs vehicle): 11.4% | mean of baseline warts cleared ([2]; EOT, p-value=0.2500 vs vehicle): 15.5% | mean volume of the target warts compared to vehicle ([2]; at EOT visit, p-value=0.0367): significantly lower | volume of the warts compared to vehicle ([2]; entire study period (pre-dose till EOS), p=0.0655): trend to reduction | adverse events ([2]; human, in vivo): few adverse events | safety of administration to patients with external anogenital warts ([2]; human, in vivo): safe | height of the warts compared to vehicle ([2]; p=0.0543): clear trend in decrease | wart count ([2]; summary of study): trend in reduction | photography assessment of anogenital warts ([2]; two subjects treated with omiganan): visible wart size reduction or even clearance | amount of IL-1β in biopsies [3]: increased | amount of IL-8 in biopsies [3]: increased | IL-1β response [4, 7]: did not significantly modify | IL-8 response [4, 7]: significantly enhanced | IL-6 response [4, 8]: enhanced | TNF-α response [4, 8]: enhanced | CpG-A IFN-α responses [5, 9]: strongly enhanced | CpG-B IFN-α responses [5, 9]: did so strongly | CpG-C IFN-α responses [5, 9]: concentration-dependently enhanced | ssDNA-driven IFN-α responses ([5]; omiganan pre-incubation, E. coli ssDNA 5 μg/mL): initial inhibition of cytokine release at low omiganan concentrations, and an enhancement of cytokine release at higher omiganan concentrations | tumor outgrowth compared to PBS-treated mice ([6]; 30 nmol intratumoral on days 10, 12, 14): reduction in tumor outgrowth | CD11c expression of Ly6C-low macrophages in TC-1 tumors (macrophage phenotype) ([6]; flow cytometry after three intratumoral injections): lower CD11c expression

From patent US20200360471A1, “METHODS OF TREATING AND PREVENTING VIRAL INFECTIONS” (priority 2017, published 2020)
